Experiments:
[1] = tested on: Litomosoides carinii; assay: Antifilarial activity against circulating Litomosoides carinii microfilaria; type: functional; design: concentration or dose not given beside the values
[2] = tested on: Litomosoides carinii; assay: Antifilarial activity against Litomosoides carinii adults; type: functional; design: concentration or dose not given beside the values
[3] = tested on: Brugia pahangi; assay: Antifilarial activity against Brugia pahangi in jirds was determined after subcutaneous administration of 100 mg/kg/day.; type: functional, organism-based

| SMILES | Reduction [1] | Reduction [2] | Reduction [3] |
| --- | --- | --- | --- |
| CCNCc1cc(Nc2cc(C(F)(F)F)nc(Nc3nc4cc(C(=O)c5ccccc5)ccc4[nH]3)n2)ccc1OC | <90% | <60% | Not significant |
| CCNCc1cc(Nc2nc(Nc3nc4cc(Cl)c(Cl)cc4[nH]3)nc3c2CCCC3)ccc1OC | <90% | <60% | Not significant |
| CCN(CC)Cc1cc(Nc2cc(-c3ccccc3)nc(Nc3nc4cc(Cl)c(Cl)cc4[nH]3)n2)ccc1O | <90% | <60% | Not significant |
| CCOc1ccc(Nc2cc(C)nc(Nc3nc4cc(Cl)c(Cl)cc4[nH]3)n2)cc1CN(CC)CC | <90% | <60% | Not significant |
| CCNCc1cc(Nc2cc(C)nc(Nc3nc4cc(Cl)c(Cl)cc4[nH]3)n2)ccc1OC | <90% | <60% | Not significant |
| CCN(CC)Cc1cc(Nc2cc(C(F)(F)F)nc(Nc3nc4cc(C(=O)c5ccccc5)ccc4[nH]3)n2)ccc1OC | <90% | <60% | Not significant |
| CNCc1cc(Nc2cc(C)nc(Nc3nc4cc(Cl)c(Cl)cc4[nH]3)n2)ccc1O | <90% | <60% | Not significant |
| CN1CCN(Cc2cc(Nc3nc(Nc4nc5cc(Cl)c(Cl)cc5[nH]4)nc4c3CCCC4)ccc2O)CC1 | <90% | <60% | Not significant |
| CCN(CC)Cc1cc(Nc2cc(C(F)(F)F)nc(Nc3nc4cc(C(=O)c5ccccc5)ccc4[nH]3)n2)ccc1O | <90% | <60% | Not significant |
| CCN(CC)Cc1cc(Nc2cc(C(F)(F)F)nc(Nc3nc4cc(Cl)c(Cl)cc4[nH]3)n2)ccc1OC | <90% | <60% | Not significant |
| CCOC(=O)N1CCN(Cc2cc(Nc3cc(C(F)(F)F)nc(Nc4nc5cc(Cl)c(Cl)cc5[nH]4)n3)cc(-c3ccccc3)c2O)CC1 | <90% | <60% | Not significant |
| CCN(CC)Cc1cc(Nc2cc(C(F)(F)F)nc(Nc3nc4cc(Cl)c(Cl)cc4[nH]3)n2)ccc1O | <90% | <60% | Not significant |
| CCOc1ccc(Nc2nc(Nc3nc4cc(Cl)c(Cl)cc4[nH]3)nc3c2CCCC3)cc1CN(CC)CC | <90% | <60% | Not significant |
| CCN(CC)Cc1cc(Nc2cc(C)nc(Nc3nc4cc(Cl)c(Cl)cc4[nH]3)n2)ccc1O | <90% | <60% | Not significant |
| CCN(CC)Cc1cc(Nc2cc(C)nc(Nc3nc4cc(Cl)c(Cl)cc4[nH]3)n2)ccc1OC | <90% | <60% | Not significant |
| CCN(CC)Cc1cc(Nc2nc(Nc3nc4cc(Cl)c(Cl)cc4[nH]3)nc3c2CCCC3)ccc1O | <90% | <60% | Not significant |
| CCN(CC)Cc1cc(Nc2cc(C(F)(F)F)nc(Nc3nc4cc(Cl)c(Cl)cc4[nH]3)n2)cc(-c2ccccc2)c1O | <90% | <60% | Not significant |
| Cc1cc(Nc2ccc(O)c(CN3CCCC3)c2)nc(Nc2nc3cc(Cl)c(Cl)cc3[nH]2)n1 | <90% | <60% | Not significant |
| Cc1cc(Nc2ccc(O)c(CN3CCN(C)CC3)c2)nc(Nc2nc3cc(Cl)c(Cl)cc3[nH]2)n1 | <90% | <60% | Not significant |
| CN1CCN(Cc2cc(Nc3cc(C(F)(F)F)nc(Nc4nc5cc(C(=O)c6ccccc6)ccc5[nH]4)n3)ccc2O)CC1 | <90% | <60% | Not significant |
